Structures are written as SMILES.

The target in experiment [1] is recombinant TDO2 (Homo sapiens (Human), UniProt P48775). The experiment in a line: TDO2 enzymatic assay (UV absorption at 321 nm). It is filed as biochemical. The note with it: 50 nM TDO2, 200 μM tryptophan, 75 min. The procedure:
The TDO2 enzymatic assay was performed by UV absorption using a recombinant TDO2 and L-Tryptophan substrate. The UV absorption signal at 321 nm is correlated with the amount of N-formylkynurenine reaction product of TDO2. The compounds were diluted in 10% DMSO and 5 μL of the dilution was added to a 100 μL reaction so that the final concentration of DMSO is 0.5% in all of reactions. All of the reactions were conducted at room temperature. The 100 μL reaction mixture in TDO2 Assay Buffer contains 50 nM TDO2, the indicated amount of the inhibitor, 200 μM tryptophan, and the coupled reaction components. The reaction mixture incubated for 75 min prior to reading the UV absorption signal. For the negative control (blank), 5 μl of the assay buffer was added instead of the TDO2.
Absorption signals were measured using a Tecan Infinite M1000 plate reader. Binding experiments were performed in duplicate at each concentration. The percent activity in the presence of each compound was calculated according to the following equation: % activity=[(A−Ab)/(At−Ab)]×100, where A=the absorption signal in the presence of the compound, Ab=the absorption signal of blank, At=the absorption signal in the absence of the compound. […] The IC50 was calculated using non-linear regression in Graph Pad Prism® 4.

Experiment [2] deals with Human recombinant IDO1 (Homo sapiens (Human), UniProt P14902). The experiment in a line: IDO1 enzymatic assay (UV absorption at 321 nm). It is filed as biochemical. Particulars: human recombinant IDO1, 80 min incubation, room temperature; read-out: hIDO1 IC50. The method, then: The detailed experimental method is as follow:
The compounds described in this disclosure were dissolved in 10% DMSO to predefined concentration. All of the reactions were conducted at room temperature in this disclosure. Human recombinant IDO1 (BPS Bioscience) was added so that its concentration was 200 nm in the reaction buffer solution (200 μL). […] 10 μL test compound solution was added into the above reaction solution (200 μL), so that the final concentration of DMSO in all reaction wells was 0.5%. % concentration was volume %. After 80 min incubation of the reaction solution, the UV absorbance was measured using TECAN Infinite M1000 plate reader. For the negative control (blank), 10 μl of the assay buffer was added instead of the IDO1
All reagents (excluding human recombinant IDO1) were purchased from Sigma Aldrich, MO, USA.
The percent activity in the presence of each compound was calculated according to the following equation: % activity=[(A−Ab)/(At−Ab)]×100, where A=the absorption signal in the presence of the compound, Ab=the absorption signal of blank, At=the absorption signal in the absence of the compound. […] The IC50 was calculated using non-linear regression in Graph Pad Prism® 4.

Experiment [3] concerns the target HeLa cell IDO1 (Homo sapiens (Human), UniProt P14902). As to the kind of experiment: HeLa cell based IDO1 inhibition assay (kynurenine readout, IFN-γ induced). The note with it: HeLa cells. The procedure:
HeLa cell line was purchased from ATCC, cultured in MEM/EBSS medium supplemented with 10% FBS, penn-step (100,000 U/L), non-essential amino acid (0.1 Mm), sodium pyruvate (1.0 Mm). Cells were cultured at 37° C., 95% humidity and 5% CO2. […] The detailed experimental method is as follow:
25,000 HeLa cells were placed on 96-well plates. Each well contained 100 μl culture medium, subsequently IFN-γ and test compounds at specific concentrations (concentration range between 10 μM and 1 Nm, so that the final volume of culture medium was 200 μL) were added and IFN-γ was used to induce IDO1 expression. After incubation, 140 μL supernatant was transferred to 96-well plates. After adding 6.1 N TCA (10 μL), the plates were continuously incubated at 50° C. for 30 min, to hydrolyze N-formylkynurenine produced by IDO to kynurenine. The reaction solution was then centrifuged at 2500 rpm for 10 min to remove precipitate. 100 μL/well supernatant was then transferred to another 96-well plate. 100 μL of 2% (w/v) 4-N,N-dimethyl aminobenzaldehyde acetic acid solution was added and incubated at room temperature for 10 min. The yellow color derived from kynurenine was recorded by measuring absorbance at 480 nm using a microplate reader (TECAN Infinite M1000 Pro).

In experiment [4] the test system is colon cancer MC38 cells. As to the kind of experiment: Subcutaneous MC38 mouse colon cancer syngeneic model in C57BL/6 mice. The note with it: single agent, s.c. MC38 tumors in female C57BL/6 mice, FIG. 1. It is filed as in vivo. The procedure:
Female mice (C57BL/6, 6-8 week old) were purchased from Shanghai Laboratory Animal Center, Chinese Academy of Sciences, Shanghai, China. Mice were housed under pathogen-free conditions with autoclaved rodent chow and water available ad libitum. Each mouse was inoculated s.c. with colon cancer MC38 cells in 0.1 mL PBS over the right lower flank. When the tumor volume reached 40 mm^3, mice were randomized based on initial tumor volume measurements and treated with either vehicle or compound 23A-3. Tumor volumes were measured with electronic digital caliper and calculated using the formula length (mm)×width (mm)^2/2 and expressed in mm^3. Student's t-test was used to evaluate the statistical significance of observed differences.

Sequence of Human recombinant IDO1 (P14902 whole entry): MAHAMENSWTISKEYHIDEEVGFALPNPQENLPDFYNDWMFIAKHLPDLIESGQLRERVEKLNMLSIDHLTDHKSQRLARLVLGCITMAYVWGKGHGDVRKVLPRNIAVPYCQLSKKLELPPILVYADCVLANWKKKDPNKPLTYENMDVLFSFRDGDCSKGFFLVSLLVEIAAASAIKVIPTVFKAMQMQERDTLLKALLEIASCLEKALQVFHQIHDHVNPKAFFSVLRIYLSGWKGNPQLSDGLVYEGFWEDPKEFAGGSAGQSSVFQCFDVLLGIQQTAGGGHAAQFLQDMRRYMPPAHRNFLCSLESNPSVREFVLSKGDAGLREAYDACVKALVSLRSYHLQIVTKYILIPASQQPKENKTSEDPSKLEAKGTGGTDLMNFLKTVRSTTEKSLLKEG
Sequence of HeLa cell IDO1 (P14902 whole entry): as above
Sequence of recombinant TDO2 (P48775 whole entry, species assumed): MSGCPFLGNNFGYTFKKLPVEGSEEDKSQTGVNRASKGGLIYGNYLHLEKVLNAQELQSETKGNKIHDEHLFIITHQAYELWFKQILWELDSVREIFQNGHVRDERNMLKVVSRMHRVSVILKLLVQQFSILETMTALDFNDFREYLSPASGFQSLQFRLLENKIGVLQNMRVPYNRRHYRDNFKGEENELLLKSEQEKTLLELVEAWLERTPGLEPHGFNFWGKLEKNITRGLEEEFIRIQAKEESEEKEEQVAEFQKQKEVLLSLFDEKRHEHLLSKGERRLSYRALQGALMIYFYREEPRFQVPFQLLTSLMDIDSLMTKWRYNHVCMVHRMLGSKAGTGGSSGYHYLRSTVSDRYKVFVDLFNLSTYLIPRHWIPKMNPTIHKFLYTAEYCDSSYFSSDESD

As to `Nc1nonc1C(=NO)Nc1ccc(F)c(Cl)c1` [Ref. B, 4-amino-N-(3-chloro-4-fluorophenyl)-N′-hydroxy-1,2,5-oxadiazole-3-carboximidamide, reference compound], the IC50 in experiment [1] was in the range of 10000 to 100000 nM.
As to `CC1(O)C2CC3CC1CC(C(O)CC1c4ccccc4-c4cncn41)(C3)C2` (stereo not shown) [Compound 11A-2], the results for the IC50 in experiment [1] and in experiment [2] were less than 500 nM and less than 100 nM, respectively.
Take `O=S(=O)(Cc1ccccc1)NC1C2CC3CC1CC([C@H](O)CC1c4c(F)cccc4-c4cncn41)(C3)C2` (stereo partly shown) [Compound 45A-1]: the figures for the IC50 in experiment [1], in experiment [2] and in experiment [3] were less than 500 nM, less than 100 nM and less than 100 nM, respectively.
For `OC1C2CC3CC1CC([C@H](O)CC1c4c(F)cccc4-c4cncn41)(C3)C2` (stereo partly shown) [Compound 26A-3], the IC50 in experiment [1] was less than 500 nM; in experiment [2], less than 100 nM; in experiment [3], less than 100 nM.
For `OC1C2CC3CC1CC([C@@H](O)CC1c4c(F)cccc4-c4cncn41)(C3)C2` (stereo partly shown) [Compound 23A-3], the figures for the IC50 in experiment [1], in experiment [2] and in experiment [3] were less than 500 nM, less than 100 nM and less than 100 nM, respectively. In experiment [4], the “tumor growth inhibition (mean tumor volume versus dosing days)” value is on record as “significant tumor growth inhibition effect”.
Turning to `O=S(=O)(Cc1ccccc1)NC1C2CC3CC1CC([C@@H](O)CC1c4c(F)cccc4-c4cncn41)(C3)C2` (stereo partly shown) [Compound 45A-4], the values for the IC50 in experiment [1], in experiment [2] and in experiment [3] were 1000 to 10000 nM, 100 to 500 nM and 100 to 500 nM, respectively.

These data come from patent publication US10202388B2, “Fused-ring compounds, pharmaceutical composition and uses thereof” (SHANGHAI DE NOVO PHARMATECH CO., LTD., priority 2015, dated 2019).
